Assay results: patent US20040253189A1, “Breath Freshening and Oral Cleansing Product Using Geraniol” (priority 2002, published 2004)
≈ marks a conversion by molar mass, not a printed value.

Assays:
Assay type in all cases: cell-based
[1] = tested on: Fusobacterium nucleatum; experiment: MIC (minimum inhibitory concentration) study, 96 well microtiter plates; conditions: F. nucleatum, 48 hours at 37° C., turbidity at 660 nm
Description: (§1) In vitro tests were conducted with a gram positive supragingival plaque bacterium, Streptococcus mutans. In addition, two subgingival plaque bacteria associated with oral malodor were tested, Porphyromonas gingivalis and Fusobacterium nucleatum. The MIC (Minimum Inhibitory Concentrations) study protocol is as follows. Chlorhexidine was used as a positive control and sterile water was used as a negative control. Geraniol was suspended in 10% methanol with 3.8% Tween 80. […] 96 well microtiter plates were used for this study. Each well contained 5×10^5 colony forming units/ml of bacteria, serially diluted agents and bacterial growth medium. All bacterial cultures were incubated at 37° C. and stationary. Bacterial growth was estimated spectrophotometrically at 660 nm, after 48 hours. The MIC for each test bacteria was defined as the minimum concentration of test compound limiting turbidity to <absorbance at 660 nm.

[2] = tested on: Porphyromonas gingivalis; experiment: as above; conditions: P. gingivalis, 48 hours at 37° C., turbidity at 660 nm
Description: as §1

[3] = tested on: Fusobacterium nucleatum; experiment: MBC (minimum bactericidal concentration) determination, plating on blood agar; conditions: F. nucleatum, lowest concentration that killed at least 99.9% of initial inoculum
Description: as §1, with “[…]. The MBC (Minimum bactericidal concentrations) were determined using the 96 well microtiter plate serial dilutions as described above for MIC studies. Serial dilution of cultures in wells showing no visible growth were performed and 10 microliters of culture were plated in triplicate on blood agar plates. Viable colonies were scored after incubation of the plates for 48 hours at 37° C. For each test bacterium, the number of CFU/ml were determined in the initial inoculum. The MBC was defined as the lowest concentration of a test compound that killed at least 99.9% of the cells present in the initial inoculum.” for “nm.”

[4] = tested on: Porphyromonas gingivalis; experiment: as above; conditions: P. gingivalis, lowest concentration that killed at least 99.9% of initial inoculum
Description: as §1, with “[…]. The MBC (Minimum bactericidal concentrations) were determined using the 96 well microtiter plate serial dilutions as described above for MIC studies. Serial dilution of cultures in wells showing no visible growth were performed and 10 microliters of culture were plated in triplicate on blood agar plates. Viable colonies were scored after incubation of the plates for 48 hours at 37° C. For each test bacterium, the number of CFU/ml were determined in the initial inoculum. The MBC was defined as the lowest concentration of a test compound that killed at least 99.9% of the cells present in the initial inoculum.” for “nm.”

[5] = tested on: Streptococcus mutans; experiment: MIC (minimum inhibitory concentration) study, 96 well microtiter plates; conditions: S. mutans, 48 hours at 37° C., turbidity at 660 nm
Description: as §1

[6] = tested on: Streptococcus mutans; experiment: MBC (minimum bactericidal concentration) determination, plating on blood agar; conditions: S. mutans, lowest concentration that killed at least 99.9% of initial inoculum
Description: as §1, with “[…]. The MBC (Minimum bactericidal concentrations) were determined using the 96 well microtiter plate serial dilutions as described above for MIC studies. Serial dilution of cultures in wells showing no visible growth were performed and 10 microliters of culture were plated in triplicate on blood agar plates. Viable colonies were scored after incubation of the plates for 48 hours at 37° C. For each test bacterium, the number of CFU/ml were determined in the initial inoculum. The MBC was defined as the lowest concentration of a test compound that killed at least 99.9% of the cells present in the initial inoculum.” for “nm.”

Row | Compound | MIC [1] [mg/L] | MIC [2] [mg/L] | MBC [3] [mg/L] | MBC [4] [mg/L] | MIC [5] [mg/L] | MBC [6] [mg/L]
1 | [H]/N=C(\N/C(=N/[H])NCCCCCCNC(=N)NC(=N)Nc1ccc(Cl)cc1)Nc1ccc(Cl)cc1 [Cholorhexidine, Chlorhexidine, reference compound] | 1.25 (≈ 2.47 µM) | 1.25 (≈ 2.47 µM) | 1.25 (≈ 2.47 µM) | 1.25 (≈ 2.47 µM) | – | –
2 | CC(C)=CCC/C(C)=C/CO [geraniol] | 125 (≈ 810 µM) | 125 (≈ 810 µM) | 125 (≈ 810 µM) | 125 (≈ 810 µM) | 500 (≈ 3240 µM) | 250 (≈ 1620 µM)
